Literature values, collected in US20150182574A1, “COMPOSITIONS AND METHODS FOR ENHANCING MOBILIZATION AND PROLIFERATION OF BLASTOMERE-LIKE STEM CELLS” (Stemtech International, Inc., priority 2012, published 2015).
Each block holds one molecule with its values, some of them ahead of it.

Tests used:
[1] = temperature and pH dependent
HSCs = settings: intravenous injection
VSELs = settings: in vivo

- stability in aqueous solutions [1]: readily degrade in aqueous solutions
Molecule: OC[C@H]1O[C@@H](Oc2c(O)cc(O)cc2C=Cc2ccc(O)cc2)[C@H](O)[C@@H](O)[C@@H]1O [2,3,5,4′-tetrahydroxystilbene-2-O-β-d-glycoside]

Molecule: Fucoidan
- egress of HSCs from bone marrow into the peripheral blood stream (HSCs): promote the egress of HSCs

B1: G-CSF: granulocyte colony-stimulating factor, mobilization agent (protein, UniProt P09919 31-207, looked up)
Granulocyte …: TPLGPASSLPQSFLLKCLEQVRKIQGDGAALQEKLVSECATYKLCHPEELVLLGHSLGIPWAPLSSCPSQALQLAGCLSQLHSGLFLYQGLLQALEGISPELGPTLDTLQLDVADFATTIWQQMEELGMAPALQPTQGAMPAFASAFQRRAGGVLVASHLQSFLEVSYRVLRHLAQP
- numbers of VSELs in peripheral blood (VSELs): increase numbers of VSELs in peripheral blood
